Results on 19 molecules are retold here after PubChem BioAssay AID248 (DTP/NCI, 2004).

In the test the test system is L1210 leukemia ip in BDF1 mice, survival T/C. Description: NCI In Vivo Anticancer Drug Screen. Data for tumor model L1210 Leukemia (intraperitoneal) in B6D2F1 (BDF1) mice. The note with it: endpoint: mean survival time, higher = longer survival. In a few lines:
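Each compound was tested against a transplantable tumor grown in mice. The endpoint was survival, with treated animals benchmarked against vehicle controls as a simple ratio.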

Setting [1] is: dose: 222.0 mg/kg/injection, schedule: Q01DX Z (ip), vehicle: saline.
Where [2] appears, read: dose: 333.0 mg/kg/injection, schedule: Q01DX Z (ip), vehicle: saline.
Setting [3] is: dose: 500.0 mg/kg/injection, schedule: Q01DX Z (ip), vehicle: saline.
[4] abbreviates: dose: 100.0 mg/kg/injection, schedule: Q04DX003 (ip), vehicle: saline with Tween-80.
Where [5] appears, read: dose: 200.0 mg/kg/injection, schedule: Q04DX003 (ip), vehicle: saline with Tween-80.
[6] abbreviates: dose: 400.0 mg/kg/injection, schedule: Q04DX003 (ip), vehicle: saline with Tween-80.
[7] abbreviates: dose: 100.0 mg/kg/injection, schedule: Q04DX003 (ip), vehicle: saline.
Setting [8] is: dose: 200.0 mg/kg/injection, schedule: Q04DX003 (ip), vehicle: saline.
The mark [9] stands for this setting: dose: 400.0 mg/kg/injection, schedule: Q04DX003 (ip), vehicle: saline.
Where [10] appears, read: dose: 100.0 mg/kg/injection, schedule: Q04DX003 (ip), vehicle: Klucel (hydroxypropylcellulose) (HPC).
[11] abbreviates: dose: 200.0 mg/kg/injection, schedule: Q04DX003 (ip), vehicle: Klucel (hydroxypropylcellulose) (HPC).

Inconclusive results and toxic doses are left out.

As to `CCCCCCCCCCCCCC(=O)OCCC(C)C`, the T/C is 105 % of control under setting [1], 95 % of control under setting [2] and 102 % of control under setting [3].
Regarding `CCCN(CCC#N)C(=S)Nc1ccc(C)c(C)c1`, the T/C (dose: 100.0 mg/kg/injection, schedule: Q04DX002 (ip), vehicle: Klucel (hydroxypropylcellulose) (HPC)) is 94 % of control; the T/C (dose: 200.0 mg/kg/injection, schedule: Q04DX002 (ip), vehicle: Klucel (hydroxypropylcellulose) (HPC)) is 97 % of control; the T/C (dose: 400.0 mg/kg/injection, schedule: Q04DX002 (ip), vehicle: Klucel (hydroxypropylcellulose) (HPC)) was 94 % of control.
Take `CCOC(=O)c1nn(C)c(=S)[nH]c1=O`: the T/C (dose: 100.0 mg/kg/injection, schedule: Q01DX Z (ip), vehicle: methylcellulose (MC)) is 92 % of control and the T/C (dose: 200.0 mg/kg/injection, schedule: Q01DX Z (ip), vehicle: methylcellulose (MC)) was 90 % of control.
In the case of `O=C1C(Cl)=C(Cl)C(=O)c2ccccc21`, the T/C (dose: 0.5 mg/kg/injection, schedule: Q01DX009 (ip), vehicle: Klucel (hydroxypropylcellulose) (HPC)) is 108 % of control; the T/C (dose: 1.0 mg/kg/injection, schedule: Q01DX009 (ip), vehicle: Klucel (hydroxypropylcellulose) (HPC)) is 110 % of control; the T/C (dose: 1.0 mg/kg/injection, schedule: Q04DX003 (ip), vehicle: Klucel (hydroxypropylcellulose) (HPC)) is 105 % of control; the T/C (dose: 2.0 mg/kg/injection, schedule: Q01DX009 (ip), vehicle: Klucel (hydroxypropylcellulose) (HPC)) is 108 % of control; the T/C (dose: 2.0 mg/kg/injection, schedule: Q04DX003 (ip), vehicle: Klucel (hydroxypropylcellulose) (HPC)) is 108 % of control; the T/C (dose: 4.0 mg/kg/injection, schedule: Q04DX003 (ip), vehicle: Klucel (hydroxypropylcellulose) (HPC)) is 110 % of control. Besides, the T/C was 93 % of control (dose: 5.0 mg/kg/injection, schedule: Q01DX009 (ip), vehicle: saline with Tween-80); 97 % of control (dose: 10.0 mg/kg/injection, schedule: Q01DX009 (ip), vehicle: saline with Tween-80); 97 % of control (dose: 20.0 mg/kg/injection, schedule: Q01DX009 (ip), vehicle: saline with Tween-80).
Turning to `Cc1nc2cccc3ccc4c5ccccc5cc1c4c32`, the T/C reads like this: under setting [4], 92 % of control; under setting [5], 92 % of control; under setting [6], 87 % of control.
On to `COC(=O)c1ccccc1-c1c(C)cccc1[N+](=O)[O-]`, for which the T/C reads like this: (dose: 100.0 mg/kg/injection, schedule: Q01DX009 (ip), vehicle: saline with Tween-80) 105 % of control; (dose: 200.0 mg/kg/injection, schedule: Q01DX009 (ip), vehicle: saline with Tween-80) 90 % of control; (dose: 400.0 mg/kg/injection, schedule: Q01DX009 (ip), vehicle: saline with Tween-80) 100 % of control.
For the molecule `CC1(C)NC(=O)N(CCOS(C)(=O)=O)C1=O`, the T/C reads like this: (dose: 25.0 mg/kg/injection, schedule: Q04DX003 (ip), vehicle: saline) 101 % of control; (dose: 50.0 mg/kg/injection, schedule: Q04DX003 (ip), vehicle: saline) 98 % of control; under setting [7], 104 % of control; under setting [8], 104 % of control; under setting [9], 93 % of control.
As to `CC(C)C(=O)OCC1CC2C=CC1C2` (centres undefined), the T/C is 96 % of control under setting [1], 104 % of control under setting [2] and 98 % of control under setting [3].
For the molecule `COc1ccc(C(=O)Nc2ccc(C3=NCCN3)cc2)cc1C(=O)Nc1ccc(C2=NCCN2)cc1`, the T/C reads like this: (dose: 3.75 mg/kg/injection, schedule: Q01DX Z (ip), vehicle: saline) 101 % of control; (dose: 7.5 mg/kg/injection, schedule: Q01DX Z (ip), vehicle: saline) 116 % of control; (dose: 30.0 mg/kg/injection, schedule: Q01DX Z (ip), vehicle: saline) 181 % of control; (dose: 60.0 mg/kg/injection, schedule: Q01DX Z (ip), vehicle: saline) 266 % of control; (dose: 120.0 mg/kg/injection, schedule: Q01DX Z (ip), vehicle: saline) 110 % of control.
As for `COc1ccccc1OS(=O)(=O)c1ccc(C)cc1`, the T/C is 105 % of control (dose: 50.0 mg/kg/injection, schedule: Q04DX003 (ip), vehicle: Klucel (hydroxypropylcellulose) (HPC)); 104 % of control under setting [10]; 105 % of control under setting [11].
Regarding `Cc1sc2ccc(-c3ccccc3)cc2[n+]1C`, the T/C is 105 % of control (dose: 75.0 mg/kg/injection, schedule: Q01DX001 (ip), vehicle: saline); 102 % of control (dose: 150.0 mg/kg/injection, schedule: Q01DX001 (ip), vehicle: saline); 107 % of control (dose: 300.0 mg/kg/injection, schedule: Q01DX001 (ip), vehicle: saline).
For `O=C(O)C1(O)c2ccccc2-c2ccc(Cl)cc21` (centres undefined), the T/C is 103 % of control (dose: 50.0 mg/kg/injection, schedule: Q01DX001 (ip), vehicle: carboxymethylcellulose (CMC)); 105 % of control (dose: 100.0 mg/kg/injection, schedule: Q01DX001 (ip), vehicle: carboxymethylcellulose (CMC)); 114 % of control (dose: 200.0 mg/kg/injection, schedule: Q01DX001 (ip), vehicle: carboxymethylcellulose (CMC)); 103 % of control (dose: 400.0 mg/kg/injection, schedule: Q01DX001 (ip), vehicle: carboxymethylcellulose (CMC)).
Consider `CCC12CCC(=O)C=C1CCCC2=O` (centres undefined), for which the T/C is, setting by setting: (dose: 25.0 mg/kg/injection, schedule: Q01DX009 (ip), vehicle: saline) 100 % of control; (dose: 50.0 mg/kg/injection, schedule: Q01DX009 (ip), vehicle: saline) 97 % of control; (dose: 100.0 mg/kg/injection, schedule: Q01DX009 (ip), vehicle: saline) 90 % of control.
Take `CCC(C(N)=O)N1C(=O)C2C3CCC(C3)C2C1=O` (centres undefined): the T/C runs as follows: under setting [4], 90 % of control; under setting [7], 107 % of control; under setting [5], 100 % of control; under setting [8], 107 % of control; under setting [6], 100 % of control; under setting [9], 98 % of control.
For `C#CC(C)(C)C(C(=O)OCC)C(=O)OCC`, the T/C (dose: 75.0 mg/kg/injection, schedule: Q01DX009 (ip), vehicle: Klucel (hydroxypropylcellulose) (HPC)) is 102 % of control; the T/C (dose: 150.0 mg/kg/injection, schedule: Q01DX009 (ip), vehicle: Klucel (hydroxypropylcellulose) (HPC)) was 100 % of control; the T/C (dose: 300.0 mg/kg/injection, schedule: Q01DX009 (ip), vehicle: Klucel (hydroxypropylcellulose) (HPC)) is 97 % of control.
On to `O=C(NC1CCC(CC2CCCCC2)CC1)c1ccccc1` (centres undefined), for which the T/C is, setting by setting: under setting [4], 92 % of control; under setting [5], 97 % of control; under setting [6], 113 % of control.
As for `Cc1cc(C)c(S(=O)(=O)Nc2cc(C)ccc2C)c(C)c1`, the T/C by setting is: (dose: 100.0 mg/kg/injection, schedule: Q01DX009 (ip), vehicle: Klucel (hydroxypropylcellulose) (HPC)) 100 % of control; (dose: 200.0 mg/kg/injection, schedule: Q01DX009 (ip), vehicle: Klucel (hydroxypropylcellulose) (HPC)) 96 % of control; (dose: 400.0 mg/kg/injection, schedule: Q01DX009 (ip), vehicle: Klucel (hydroxypropylcellulose) (HPC)) 100 % of control.
In the case of `CCCCNC(=S)NCCCN(C)C`, the T/C reads like this: under setting [10], 101 % of control; under setting [11], 98 % of control.
As for `O=C(NCCCNC(=O)Nc1ccc(C2=NCCN2)cc1)Nc1ccc(C2=NCCN2)cc1`, the T/C reads like this: (dose: 0.5 mg/kg/injection, schedule: Q01DX Z (ip), vehicle: carboxymethylcellulose (CMC)) 105 % of control; (dose: 1.0 mg/kg/injection, schedule: Q01DX Z (ip), vehicle: carboxymethylcellulose (CMC)) 105 % of control; (dose: 8.0 mg/kg/injection, schedule: Q01DX Z (ip), vehicle: water) 122 % of control; (dose: 12.0 mg/kg/injection, schedule: Q01DX Z (ip), vehicle: carboxymethylcellulose (CMC)) 225 % of control; (dose: 16.0 mg/kg/injection, schedule: Q01DX Z (ip), vehicle: carboxymethylcellulose (CMC)) 223 % of control; (dose: 16.0 mg/kg/injection, schedule: Q01DX Z (ip), vehicle: water) 210 % of control. The T/C is 223 % of control (dose: 24.0 mg/kg/injection, schedule: Q01DX Z (ip), vehicle: carboxymethylcellulose (CMC)) and 177 % of control (dose: 31.0 mg/kg/injection, schedule: Q01DX Z (ip), vehicle: carboxymethylcellulose (CMC)).
